Laboratory results from patent US20050192217A1, “Utilization of lipopeptides or lipoproteins in wound treatment and infection prophylaxis” (priority 1998, published 2005).
Where “and” joins values, the source holds several entries; their conditions need not be identical. Equal values may be shown once. Marks after values point to notes of the source that are not given here. Ends that are not written are not given here. * marks the point of attachment. X1 = 2,3‑bispalmitoyloxy‑(2S)‑propyl, CCCCCCCCCCCCCCCC(=O)OC[C@@H](C*)OC(=O)CCCCCCCCCCCCCCC; Propyl(2R-PamO,3-PamO) = CCCCCCCCCCCCCCCC(=O)OC[C@H](C*)OC(=O)CCCCCCCCCCCCCCC

Key:
peritoneal leukocytes = test: Leukocyte inflow into the peritoneal cavity after intraperitoneal injection; type: in vivo, NMRI mice; conditions: for PEC: 72 hours
Description: The model of inflow of granulocytes and macrophages into the peritoneal cavity of the mouse served as an example of the effectiveness of synthetic lipopeptides or liposomes into which such lipopeptides were incorporated. NMRI-outbred mice were used as experimental animals in order to exclude genetic peculiarities.
At time 0, the following preparations are injected in a sterile manner and in physiological sodium chloride solution into the peritoncal cavity of the experimental animals. Groups of 6 mice were killed after different times, the peritoneal cavity was washed with 1.2 ml of sterile sodium chloride solution and the number of leukocytes and the leukocyte composition was determined in this cell suspension.
Here, as above, groups of 5 NMRI mice were treated with different amounts of R-MALP-2=S-[2,3-Bispalmitoyloxy-(2R)-propyl]cysteinyl-GNNDESNISFKEK (SEQ ID NO:10) or S-MALP-2=S-[2,3-Bispalmitoyloxy-(2S)-propyl]cysteinyl-GNNDESNISFKEK (SEQ ID NO:8)applied intraperitoneally, and after 3 days the total number as well as the composition of the peritoneal leukocytes were determined.

wounds [1] = test: Wound-healing experiment; type: in vivo, (diabetic) C57BLKS/J-m+/+-Lepr^db mice; conditions: 5 μg in 100 μL into the wound each day up to day 4, diabetic mice
Description: A wound-healing experiment was carried out as follows. On day 1, (diabetic) C57BLKS/J-m+/+-Lepr^db mice were shaved on the back. On day 0, the animals were anesthetized with ether and the backs were disinfected with Braunoderm. After that, circular regions (1.3 cm diameter) were cut from the skin of the back of each mouse. The edges of the wound were treated with benzoin tincture; then 100 μL of the MALP-2 preparation or of the vehicles were introduced into each wound (10 mice for each treatment group). The wounds were covered with transparent patches of Tegaderm. Each day, up to day 4, 100 μL of the preparation (content 5 μg of MALP-2) or vehicle preparation was injected into the wound bed through the Tegaderm patches or placed in the wound when the bandage was changed. The mice were kept individually in separate cages. In order to avoid infections, baytril (Bayer) was introduced in the drinking water (50 mg/L of enrofloxacin). The bandages were changed once a week under ether anesthesia, and the wound edges were recorded on microscope slides. The areas shown were determined with a standard CCD camera using Scionlmage software. The wounds were checked visually for infections; liquid samples from obviously infected wounds were tested on blood agar plates. Mice with infected wounds were removed from further analyses.

skin of NMRI mice = test: Intracutaneous application in the skin: leukocyte accumulation and new tissue formation; type: in vivo; conditions: 2 μg intracutaneously
Description: The following experiment was carried out in order to show the effect of MALP-2 upon intracutaneous application.

abdominal sepsis = test: Colon ascendens stent peritonitis model, survival after pretreatment; type: in vivo, C57BL/6 mice; conditions: 2 μg i.p. two days before the surgical intervention
Description: “Colon ascendens stent peritonitis” is a new model for abdominal sepsis, which may follow surgical intervention [Zantl et al., Infekt. Immun., 66:2300-2309 (1998)]. The following experiments were carried out in order to evaluate the ability of MALP-2 to increase the survival rate in this model. Groups of 12 to 18 C57BL/6 mice were injected intraperitoneally with 2 μg of S-MALP-2 in 200 μL of physiological sodium chloride solution or with the same volume of physiological sodium chloride solution either 2 or 4 days before surgical intervention. The surgical intervention was carried out under ether anesthesia. The abdomen was disinfected with 70% ethanol and then opened by section in the middle line (1 cm). A venous catheter (16 gauge) was inserted into the lumen of the […] colon and secured with two stitches using Ethilon thread (7/0). Then the inner needle of the stent was removed, the catheter was shortened to a length of a few millimeters and a small drop of feces was pressed out from the catheter. The peritoneal cavity was rinsed with 0.5 Ml of sodium chloride solution before closing the abdomen. Among the mice with the control, sodium chloride solution (18 per group), none lived longer than 90 h. […]

wounds [2] = test: Cell colonization and proliferation (nucleic acids) in treated wounds; type: in vivo, C57BLKS/J-m+/+Lepr^db mice (diabetic); conditions: diabetic mice, after 10 days
Description: 2. Cell colonization and proliferation were measured in the skin section (0.8 cm diameter) of wounds which were treated with various amounts of MALP-2. For this experiment, (C57BLKS/J-m+/+Lepr^db mice (diabetic) were shaved on the back and hair was removed with Veet. The animals were anesthetized with metofane and their backs were disinfected with Braunol. Then circular skin segments (0.8 cm diameter) were taken from the back of each mouse. The wounds were covered with transparent hydrofilm (Hartmann, Germany); MALP-2 or other vehicles were injected into the wound bed through the film in a volume of 50 μL. After 10 days, the animals were killed; the thin layer of cells, which closes the wound, was sectioned ([…]). The punched samples were hydrolyzed and the nucleic acids determined as before. […] At this dose, 349±24 μg of nucleic acid per biopsy sample were found in the animals treated with MALP-2 while the value was 142±22 μg in the comparison samples (4 animals per group; p<0.0001).

skin sections = test: Infiltration of cells and proliferation by nucleic acids in skin sections after intracutaneous injection; type: in vivo, C57BLKS/J mice
Description: 1. Determination of infiltration of cells and proliferation by measurement of nucleic acids in skin sections after intracutaneous (ic) injection of various MALP-2 doses. On day 1, the back of C57BLKS/J mice was shaved and hair was removed with Veet. On day 0, the animals were anesthetized with metofane; various doses of MALP-2, dissolved in 30 percent 2-propanol, were injected in volumes of up to 10 μL onto the back (ic). Corresponding volumes of the vehicle without MALP-2 were injected onto the back of the same mice at another location. The animals were killed 10 days later, and punched skin sections (diameter 0.8 cm) were taken from the MALP-2 injection sites and from the control injection sites. The skin biopsies were defatted by extraction with methanol, methanol/chloroform (1+1) and chloroform for 15 minutes and were hydrolyzed in 10 N Hcl overnight at 110° C. The samples were dried, taken up in water and clarified by filtration through a sterile filter (0.2 μm); the nucleic acids were determined by measuring the absorption at 260 nm. […] At this dose, the nucleic acid content increased at the MALP-2 injection site by 97±43% in comparison to the corresponding control biopsy (4 animals per group).

S-[2,3-Bispalmitoyloxy-(2R)-propyl]cysteinyl-GNNDESNISFKEK (C(Propyl(2R-PamO,3-PamO))GNNDESNISFKEK) [R-MALP-2, reference compound]
PEC (peritoneal leukocytes; 10 μg i.p., group mean φ of 5): 8.64 ± 3 ×10^6 | PEC (peritoneal leukocytes; 10 μg i.p., individual animals A-E): 11.1 ×10^6 and 4.05 ×10^6 and 11.4 ×10^6 and 7.65 ×10^6 and 9 ×10^6

S-[2,3-Bispalmitoyloxy-(2S)-propyl]cysteinyl-GNNDESNISFKEK (C(X1)GNNDESNISFKEK) [S-MALP-2]
wound healing (wound area, FIG. 7) (wounds [1]): significant acceleration of wound healing | PEC (peritoneal leukocytes; 1 μg i.p., group mean φ of 5): 10.2 ± 2.2^a ×10^6 | PEC (peritoneal leukocytes; 1 μg i.p., individual animals A-E): 9.1 ×10^6 and 10.8 ×10^6 and 9.35 ×10^6 and 13.7 ×10^6 and 7.9 ×10^6 | PEC (peritoneal leukocytes; 5 μg i.p., group mean φ of 5): 14.5 ± 1.9^a,b ×10^6 | PEC (peritoneal leukocytes; 5 μg i.p., individual animals A-E): 14.4 ×10^6 and 15.2 ×10^6 and 17.3 ×10^6 and 13.1 ×10^6 and 12.5 ×10^6 | in vivo effect on peritoneal leukocytes, S-MALP-2 compared with R-MALP-2 (peritoneal leukocytes; i.p., after 3 days, groups of 5 NMRI mice): clearly more effective | accumulation of leukocytes at the injection site (skin of NMRI mice; after 3 days): a clear accumulation of leukocytes is observed | formation of new tissue and vessels (skin of NMRI mice; after 6 days): new tissue and vessels are formed | animals surviving for 150 h or longer (abdominal sepsis): 4 out of 12

S-[2,3-bispalmitoyloxy-(2RS)-propyl]cysteinyl-GNNDESNISFKEK [MALP-2]
Peritoneal cells (peritoneal leukocytes; 9 μg i.p., after 72 hours, groups of 6 animals, mean): 11.2 ± 3.1^b ×10^6 | nucleic acid per biopsy sample (wounds [2]; 5 μg per wound, 4 animals per group): 349 ± 24 µg | optimal dose per wound (wounds [2]; injected into the wound bed): 5 µg | increase of nucleic acid content at the injection site in comparison to the control biopsy (skin sections; 5 μg per injection site ic, 10 days, 4 animals per group): 97±43% | optimal dose per injection site (skin sections; intracutaneous injection, skin biopsy 10 days later): 5 µg
